Legend:
hCAT1 [1] = target: T1, hCAT1 (Homo sapiens, UniProt P30825); test: hCAT1 competition uptake assay (inhibition of 3H-arginine uptake into LLCPK-TREx-hCAT1 cells); type: cell-based; conditions: 3H-arginine as substrate; for IC50: LLCPK-TREx-hCAT1 cells induced to express hCAT1, 10 minutes at room temperature
T1 construct: expressed in transfected cells; host or cells: LLCPK-TREx (porcine kidney epithelial) cells, induced with tetracycline and butyrate
Description: A modified competition uptake assay was developed to determine the ability of a test compound(s) to inhibit the uptake of radiolabeled substrates into LLCPK-TREx-hCAT1 cells induced to over-express hCAT1. The results are stated as affinities (IC50).
The competition uptake assay was prepared as follows: Compounds were prepared for assay by diluting a 100 mM stock concentration (in DMSO) to the appropriate working concentration. Typically, seven-point dose response curves were prepared starting at a final assay concentration of 3 mM and carrying out three-fold dilutions. These dilutions were prepared by making a working “compound” plate that contained a 2×solution of the desired starting concentration of each test compound in duplicate in row A of a v-bottom microtiter plate. Six 3-fold serial dilutions (from row B to G) were made into the sodium free HBSS assay buffer (60 mg/L KH2PO4 (0.4 mM) (Sigma; P-0662); 0.42 g/L KHCO3 (4.17 mM); (Sigma; P-6037); 1 g/L Glucose ([…]) (Sigma; G-7528); 2.1 g/L MOPS (10 mM) (Sigma; M-1254); 1.05 ml/L MgCl2.(H2O)6 (Sigma; M-1028); 100 mg/L MgSO4.(H2O)7 (Sigma; M-5921); 140 mg/L CaCl2 (1.3 mM)(Sigma; C-5080); 19.1 g/L Choline Chloride (137 mM) (Sigma; C-7527), pH to 7.4 with KOH) with the appropriate amount of DMSO so that the DMSO concentration remained constant at all dilutions. The resulting “compound” plate contained serial dilutions of six compounds in duplicate. The final row (H) of the assay plate was filled with HBSS buffer alone (H1-H6) or 10 mM unlabeled Arginine in HBSS (H7-H12) to measure the total or non-specific uptake, respectively.
^3H-Arginine was diluted into HBSS buffer to a final concentration of 4,000 cpm/μl. Sufficient solution was prepared to allow addition of 25 μl/well (the final concentration was 100,000 cpm/well).
LLCPK-TREx-hCAT1 cells, plated in 96-well plates and treated with 2 mM butyrate and tetracycline (or tet analog (e.g., doxycycline), were removed from the CO2 incubator. Growth media was removed from the cells, and the cells were washed twice in room temperature HBSS (100 μl/well/wash) using a 96-well plate washer (Bio Tek ELX405). Alternatively, cells were washed manually with equivalent volumes using a multichannel pipettor. Immediately before beginning the assay, the final 100 μl wash solution was removed from the cells by aspiration.
Using a 96-well pipettor, 25 μl from the “compound” plate was added to each well of the cell plate. The assay was started by adding 25 μl of the ^3H-Arginine working solution. The plate was incubated at room temperature for 10 minutes. The assay was stopped by washing the cells four times with ice-cold HBSS buffer using a ELX405 plate washer (100 μl buffer/well/wash) having an angled buffer dispenser.
Scintillation fluid (200 μl) (Optiphase Supermix (Perkin Elmer) was added to each well, and the plate was covered with a 96-well adhesive plate cover and placed on a shaker for 20 minutes. The plates were counted on a 96-well plate scintillation counter for 60 sec/well. The data were analyzed using a sigmoidal dose response curve-fitting program (Prism, GraphPad, Inc, San Diego, Calif.; equation: one-site competition).
The competition experiment was performed as described in Example 7. Non-specific uptake was determined by measuring the uptake into cells not induced to express the transporter (“no tet”). […] In control cells, uptake of labeled arginine remained at background levels and was largely unaffected by an excess of unlabeled substrates.

PgP = target: T2, PgP (Homo sapiens, UniProt P08183); test: Transwell monolayer efflux assay in MDCK cells transfected with TREx-PgP; type: in vitro ADME; conditions: 2.5 nM 3H-vinblastine, absence and presence of 250 μM verapamil
T2 construct: purchased BD Biosciences; host or cells: baculovirus membranes
T2 sequence (P08183 whole entry): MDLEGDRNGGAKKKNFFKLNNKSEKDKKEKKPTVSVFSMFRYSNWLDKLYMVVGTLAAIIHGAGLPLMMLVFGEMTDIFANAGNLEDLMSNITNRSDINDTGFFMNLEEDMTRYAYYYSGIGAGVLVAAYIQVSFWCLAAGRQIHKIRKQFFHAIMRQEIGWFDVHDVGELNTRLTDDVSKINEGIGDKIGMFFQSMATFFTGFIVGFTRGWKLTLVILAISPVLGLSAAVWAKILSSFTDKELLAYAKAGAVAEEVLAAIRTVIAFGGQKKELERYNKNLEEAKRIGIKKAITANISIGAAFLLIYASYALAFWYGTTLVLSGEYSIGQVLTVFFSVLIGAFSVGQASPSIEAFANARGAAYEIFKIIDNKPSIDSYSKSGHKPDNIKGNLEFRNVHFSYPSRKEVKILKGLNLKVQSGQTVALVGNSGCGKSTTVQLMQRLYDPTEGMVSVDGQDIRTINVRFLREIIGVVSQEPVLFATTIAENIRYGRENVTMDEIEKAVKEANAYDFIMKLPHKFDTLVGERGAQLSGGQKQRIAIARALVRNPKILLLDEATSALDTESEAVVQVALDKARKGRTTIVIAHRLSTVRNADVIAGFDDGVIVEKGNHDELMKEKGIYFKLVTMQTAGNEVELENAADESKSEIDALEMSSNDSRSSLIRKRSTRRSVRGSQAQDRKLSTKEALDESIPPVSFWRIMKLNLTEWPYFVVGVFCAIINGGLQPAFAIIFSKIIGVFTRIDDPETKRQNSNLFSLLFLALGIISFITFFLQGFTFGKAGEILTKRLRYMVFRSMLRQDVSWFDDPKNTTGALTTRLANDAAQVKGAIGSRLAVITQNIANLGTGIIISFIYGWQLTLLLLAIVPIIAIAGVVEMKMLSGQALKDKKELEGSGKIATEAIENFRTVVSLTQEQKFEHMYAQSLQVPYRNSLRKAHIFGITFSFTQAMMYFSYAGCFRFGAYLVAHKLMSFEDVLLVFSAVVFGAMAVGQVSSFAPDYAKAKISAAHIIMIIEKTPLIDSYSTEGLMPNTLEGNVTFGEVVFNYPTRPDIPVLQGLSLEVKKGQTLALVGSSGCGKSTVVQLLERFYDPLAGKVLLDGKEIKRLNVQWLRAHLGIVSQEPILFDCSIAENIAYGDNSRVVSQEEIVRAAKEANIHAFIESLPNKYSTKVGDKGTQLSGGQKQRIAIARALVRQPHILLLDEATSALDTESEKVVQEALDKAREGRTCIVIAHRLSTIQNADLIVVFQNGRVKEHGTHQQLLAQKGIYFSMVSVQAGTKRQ
Description: Transwell monolayer efflux assays can be performed by transfecting MDCK cells with the tetracycline-inducible TREx-PgP expression vector. The cells optionally can be transfected with a nucleic acid encoding the transporter of interest. The transfected cells are seeded on polycarbonate filter membranes in transwell dishes and grown for 3-5 days, yielding a polarized monolayer with tight junctions between cells.

hCAT1 [2] = target: T1, hCAT1; test: hCAT1 direct uptake assay (LC-MS-MS, LLCPK-TREx-hCAT1 cells induced vs no tet); type: cell-based; conditions: direct uptake into LLCPK-TREx-hCAT1 cells
Description: Four concentrations (bracketing the affinity as measured by competition assays) per compound were routinely tested. Non-specific uptake was determined by measuring the uptake into cells not induced to express the transporter (“no tet”).
Typically, four concentrations bracketing the IC50 were tested. […] The samples were robustly vortexed and centrifuged for 10 minutes at 13,200 rpm to spin down any precipitate. […] Three additional 2-fold dilutions were made in the subsequent rows (B-D or […]) in HBSS.
An internal standard of 50 μM propranolol in 50:50 ethanol:water was also prepared.
The cells were washed twice in room temperature HBSS (100 μl/well/wash) using a 96-well plate washer (Bio Tek ELX405). Alternatively, cells were washed manually with equivalent volumes using a multichannel pipettor. Immediately before the assay was begun, the final 100 μl wash solution was removed from the cells.
After the final wash, as much of the wash buffer as possible was removed by aspirating the wells with a probe that reached the bottom of the wells. (Residual salts from the wash buffer can adversely affect the LC-MS-MS by disrupting the LC method or by suppressing the MS signal.) 150 μl of a 50:50 ethanol:water solution was added to each well to lyse the cells and extract the test compound. The plate was covered and allowed to sit for 20 minutes at room temperature to ensure cell lysis.
120 μl of the cell extract was removed from each well and transferred to a fresh 96-well v-bottom polypropylene plate. This plate was covered with an adherent cover (top seal) and centrifuged for 15 minutes at 5,700 rpm (Allegra 25R centrifuge) at 4° C. to pellet any cell precipitate. 10 μl of the 50 μM propranolol solution was added to each well of a fresh 96-well plate (a plate amenable for sampling in the LC-MS-MS). […] The levels of intracellular compounds were determined by converting the peak area to concentration by extrapolating from the standard curve for each compound. Uptake was expressed as μM/well.

T1 sequence (P30825 whole entry): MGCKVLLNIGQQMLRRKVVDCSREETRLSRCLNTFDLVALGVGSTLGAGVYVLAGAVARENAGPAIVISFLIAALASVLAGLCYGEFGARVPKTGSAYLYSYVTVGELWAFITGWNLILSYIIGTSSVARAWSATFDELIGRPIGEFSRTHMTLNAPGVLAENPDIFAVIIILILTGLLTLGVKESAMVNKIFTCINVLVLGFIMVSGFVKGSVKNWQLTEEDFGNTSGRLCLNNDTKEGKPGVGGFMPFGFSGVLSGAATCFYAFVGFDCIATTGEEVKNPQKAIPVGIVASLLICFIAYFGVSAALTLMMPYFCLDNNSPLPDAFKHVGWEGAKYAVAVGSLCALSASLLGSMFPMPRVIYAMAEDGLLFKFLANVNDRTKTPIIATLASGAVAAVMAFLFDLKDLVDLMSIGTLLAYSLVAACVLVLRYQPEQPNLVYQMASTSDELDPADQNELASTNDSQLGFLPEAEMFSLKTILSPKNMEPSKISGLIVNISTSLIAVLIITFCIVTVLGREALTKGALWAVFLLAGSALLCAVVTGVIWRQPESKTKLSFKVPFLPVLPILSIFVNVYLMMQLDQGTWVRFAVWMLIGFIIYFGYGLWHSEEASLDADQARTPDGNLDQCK

Compound: N=C(N)NCCC[C@H](N)C(=O)O [Arginine, arginine]
- IC50 (hCAT1 [1]): 83 µM

Compound: NCCCC[C@H](N)C(=O)O [Lysine, lysine]
- IC50 (hCAT1 [1]): 140 µM

Compound: NCCC[C@H](N)C(=O)O [Ornithine, ornithine]
- IC50 (hCAT1 [1]): 73 µM

Compound: CC[C@]1(O)C[C@@H]2CN(CCc3c([nH]c4ccccc34)[C@@](C(=O)OC)(c3cc4c(cc3OC)N(C)[C@H]3[C@@](O)(C(=O)OC)[C@H](OC(C)=O)[C@]5(CC)C=CCN6CC[C@]43[C@@H]65)C2)C1 [^3H-vinblastine, vinblastine]
- PgP substrate status from apical to basolateral and basolateral to apical transport (PgP): substrate of PgP

Compound: N-methyl arginine [N-Me-Arg]
- pKm (hCAT1 [2]): 3.8
- Vmax (hCAT1 [2]; 5 minutes at room temperature): 3.9 μM/well
- Km (hCAT1 [2]; 5 minutes at room temperature, specific uptake (+TET minus no TET)): 158 µM
- pIC50 (hCAT1 [1]; LLCPK-TREx-hCAT1 cells induced to express hCAT1): 3.7
- IC50 (hCAT1 [1]): 190 µM

Reference: US7670782B2, “Screening of compounds for CAT1 transporter activity” (XenoPort, Inc., priority 2005, dated 2010)
